Values quoted from earlier work, collected in patent publication US20230024050A1, “Dermatological Compositions and Methods of Treatment against Cutaneous T-Cell Lymphoma” (Soligenix, Inc., priority 2021, published 2023).
Like-named read-outs stand apart in the source and are kept apart here.

Columns and labels:
[1] = tested on: CTCL patients IA, IB, IIA refractory to ≥2 previous treatments; conditions: at end of therapy, time not stated
[2] = administered intravenously at much higher doses

Structure (SMILES)	Response (CAILS), 24 Week ([1]; 6.5 mg/m^2, N = 15)	Response (CAILS), 24 Week ([1]; 300 mg/m^2, N = 28)	Response (CAILS), 24 Week ([1]; >300 mg/m^2, N = 15)	Significant AEs on intravenous administration [2]
C=C(c1ccc(C(=O)O)cc1)c1cc2c(cc1C)C(C)(C)CCC2(C)C [Oral Bexarotene, Bexarotene]	20%^1	36%^1	47%^1	–
Cc1cc(O)c2c(=O)c3c(O)cc(O)c4c5c(O)cc(O)c6c(=O)c7c(O)cc(C)c8c1c2c(c34)c(c78)c65 [hypericin]	–	–	–	does not cause significant AEs other than those related to photoactivity
